In PubChem BioAssay (NCI):
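Following 48 hours of exposure in 96-well plates, responses at five concentrations were used to interpolate endpoints linearly. TGI is the concentration that stops growth completely.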

Experiments:
Assay in all cases: growth of human tumour cells (NCI), 48 h
[1] = tested on: HCT-15 colon
[2] = tested on: LXFL 529 NSCLC
[3] = tested on: SF-268 CNS
[4] = tested on: RXF 393 renal
[5] = tested on: TK-10 renal
[6] = tested on: OVCAR-3 ovarian
[7] = tested on: EKVX NSCLC
[8] = tested on: COLO 205 colon
[9] = tested on: HOP-92 NSCLC
[10] = tested on: OVCAR-5 ovarian
[11] = tested on: DMS 114 small cell lung
[12] = tested on: SNB-78 CNS
[13] = tested on: SF-539 CNS
[14] = tested on: IGROV1 ovarian
[15] = tested on: HT29 colon
[16] = tested on: CCRF-CEM leukemia
[17] = tested on: SK-MEL-2 melanoma
[18] = tested on: UACC-62 melanoma
[19] = tested on: XF 498 CNS
[20] = tested on: CAKI-1 renal
[21] = tested on: KM12 colon
[22] = tested on: SNB-19 CNS
[23] = tested on: UO-31 renal
[24] = tested on: M14 melanoma
[25] = tested on: OVCAR-4 ovarian
[26] = tested on: NCI-H460 lung
[27] = tested on: HL-60(TB) leukemia
[28] = tested on: 786-0 renal
[29] = tested on: SK-MEL-5 melanoma
[30] = tested on: NCI-H522 lung
[31] = tested on: A498 renal
[32] = tested on: SK-MEL-28 melanoma
[33] = tested on: NCI-H23 lung
[34] = tested on: M19-MEL melanoma
[35] = tested on: OVCAR-8 ovarian
[36] = tested on: SW-620 colon
[37] = tested on: LOX IMVI melanoma
[38] = tested on: RPMI-8226 leukemia
[39] = tested on: MOLT-4 leukemia
[40] = tested on: MALME-3M melanoma
[41] = tested on: SNB-75 CNS
[42] = tested on: ACHN renal
[43] = tested on: RXF-631 renal
[44] = tested on: UACC-257 melanoma
[45] = tested on: U251 CNS
[46] = tested on: A549 NSCLC
[47] = tested on: HOP-62 NSCLC
[48] = tested on: K-562 leukemia
[49] = tested on: SN12C renal
[50] = tested on: SF-295 CNS
[51] = tested on: SK-OV-3 ovarian
[52] = tested on: HCT-116 colon
[53] = tested on: DMS 273 small cell lung

Measured: TGI

O=C(O)C#CCO
> 100 µM: all assays above
